Data as given in ChEMBL document CHEMBL1201862, “PubChem BioAssay data set” (2004).
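A five-concentration, 48-hour dose response in 96-well plates underlies each endpoint, interpolated linearly between surrounding concentrations. Here, GI50 denotes the concentration required for 50% inhibition of growth.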 Activity calls are given as the source filed them. No stated cut-off is given here; in the data, active = GI50 up to about 1.1 µM and inactive = higher.

Legend:
Experiment in all cases: inhibition of tumour cell growth, NCI panel, 48 h
SNB-75 = system: SNB-75
CAKI-1 = system: CAKI-1
RXF 393 = system: RXF 393
SF-539 = system: SF-539
MDA-MB-231 = system: MDA-MB-231
NCI-H460 = system: NCI-H460
PC-3 = system: PC-3
A549 = system: A549
SN12C = system: SN12C
OVCAR-5 = system: OVCAR-5
OVCAR-8 = system: OVCAR-8
OVCAR-4 = system: OVCAR-4
CCRF-CEM = system: CCRF-CEM
NCI-H522 = system: NCI-H522
IGROV-1 = system: IGROV-1
LOX IMVI = system: LOX IMVI
SK-MEL-28 = system: SK-MEL-28
OVCAR-3 = system: OVCAR-3
HT-29 = system: HT-29
BT-549 = system: BT-549

Measured: GI50

CCC1=C(C=O)c2cc3[nH]c(cc4nc(c5c6[nH]c(cc1n2)c(C)c6C(=O)C5C(=O)OC)C(CCC(=O)OC)C4C)c(C)c3CC (stereo not given)
inactive: SNB-75 > 100 µM | CAKI-1 > 100 µM | RXF 393 > 100 µM | SF-539 > 100 µM | MDA-MB-231 > 100 µM | NCI-H460 > 100 µM | PC-3 > 100 µM | A549 > 100 µM | SN12C > 100 µM | OVCAR-5 > 100 µM | OVCAR-8 > 100 µM | OVCAR-4 > 100 µM | CCRF-CEM > 100 µM | NCI-H522 > 100 µM | IGROV-1 > 100 µM | LOX IMVI > 100 µM | SK-MEL-28 > 100 µM | OVCAR-3 > 100 µM | HT-29 > 100 µM | BT-549 > 100 µM
